Assays:
[1] = target: T1, Mycobacterium tuberculosis InhA (Mycobacterium tuberculosis, UniProt P9WGR1); assay: STD 1H NMR; assay type: binding; settings: NADH-bound InhA; co-crystallised with ligands
[2] = target: T1, Mycobacterium tuberculosis InhA; assay: InhA biochemical inhibition assay; settings: for IC50: read-out: InhA pIC50 ^[a][e] (% 500 μM) (converted); for InhA pIC50 ^[a][e] (% 500 μM): tested up to 1 mM
Description: InhA biochemical inhibition assay on Mycobacterium tuberculosis InhA

[3] = target: T1, Mycobacterium tuberculosis InhA; assay: surface plasmon resonance, equilibrium; assay type: binding; settings: read-out: SPR pK d ^[f] (converted)
Description: surface plasmon resonance, equilibrium on Mycobacterium tuberculosis InhA

[4] = published lead, not marked as earlier data in table

T1 sequence (P9WGR1 whole entry, looked up): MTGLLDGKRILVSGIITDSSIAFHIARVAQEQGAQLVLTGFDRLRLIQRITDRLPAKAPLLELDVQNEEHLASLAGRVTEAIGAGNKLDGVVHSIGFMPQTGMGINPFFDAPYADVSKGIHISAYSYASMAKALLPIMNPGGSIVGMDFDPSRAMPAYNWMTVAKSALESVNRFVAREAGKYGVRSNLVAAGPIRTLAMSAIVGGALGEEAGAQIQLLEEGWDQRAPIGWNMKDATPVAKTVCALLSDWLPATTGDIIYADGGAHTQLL

Compound	IC50 [2]	Kd [3]	InhA pIC50 ^[a][e] (% 500 μM) [2]	further results
NC(=O)C1=CN([C@@H]2O[C@H](COP(=O)(O)OP(=O)(O)OC[C@H]3O[C@@H](n4cnc5c(N)ncnc54)[C@H](O)[C@@H]3O)[C@@H](O)[C@H]2O)C=CC1 [NADH]	–	–	–	STD 1H NMR [1]: NADH binding was also observed in the STD‐NMR spectra
OCc1ccc(Cn2cccn2)cc1 [compound 4, 4]	> 1000 µM	–	–	–
Cc1cc(N)n(Cc2ccccc2)n1 [compound 9, 9]	–	501 µM	3.4±0.23	–
CCOC(=O)[C@@H]1CCc2nc(C)sc2C1 [compound 22, 22]	794 µM	–	–	–
O=C(CCc1cccnc1)NC1CCN(c2ncccn2)CC1 [compound 36, 36]	> 1000 µM	–	–	–
O=C(NCc1cccnc1)NC1CCN(c2ncccn2)CC1 [compound 37, 37]	–	–	4.1±0.06	–
Cc1cncc(CNC(=O)NC2CCCCC2)c1 [compound 38, 38]	100 µM	631 µM	–	–
Cc1cncc(CNC(=O)NC2CCN(c3ncccn3)CC2)c1 [compound 39, 39]	–	20 µM	5.0±0.14	–
Cc1cc(=O)c(-c2ccccc2)c(C)[nH]1 [compound 40, 40]	15.8 µM	25.1 µM	–	–
Cc1cc(=O)c(C2CCN(c3ncccn3)CC2)c(C)[nH]1 [compound 41, 41]	1 µM	6.31 µM	–	–
O=c1[nH]c(CC2CCCCC2)cc(O)c1C1CCN(c2ncccn2)CC1 [compound 42, 42]	–	–	6.5±0.03	–
CC(C)Cc1cc(O)c(C2CCN(c3ncccn3)CC2)c(=O)[nH]1 [compound 43, 43]	6.31 µM	200 µM	–	–
Cc1cc(C)n(Cc2ccc(C(=O)NCc3ccc(F)cc3Cl)cc2)n1 [compound 44, 44]	–	–	–	InhA pIC50 ^[a][e] (% 500 μM) [2, 4]: 6.9±0.07
Cc1ccn(C(C)c2nnc(Nc3ccn(Cc4c(F)cccc4Cl)n3)s2)n1 (stereo not shown) [compound 45, 45]	–	0.01 µM	–	InhA pIC50 ^[a][e] (% 500 μM) [2, 4]: 8.1±0.27
Cc1cc(N)n(Cc2ccc(C(=O)NCc3ccc(F)cc3Cl)cc2)n1 [compound 46, 46]	–	0.501 µM	6.3±0.25	–
Cc1cc(N)n(Cc2nnc(Nc3ccn(Cc4c(F)cccc4Cl)n3)s2)n1 [compound 47, 47]	–	0.0794 µM	7.3±0.20	–
